Test system: T1, Nit09
T1 construct: His6-tagged, expressed in E. coli TOP10 from pBAD18, Ni-TED purified; gene 1005 bp
Assay: GDH-coupled NADH oxidation at […] nm, Michaelis-Menten fit
Format: biochemical, uncultured bacterium
Details: 37 °C, 0.1 M HEPES pH 8.0; fit up to 6 mM, substrate inhibition above 10 mM

## N#CCc1ccccc1 [phenylacetonitrile]
  Km: 1.29 mM

From article PMC7228900, “From sequence to function: a new workflow for nitrilase identification” (Applied Microbiology and Biotechnology, 2020)
